According to ChEMBL document CHEMBL4049403, “Oligo-aspartic acid conjugates with benzo[c][2,6]naphthyridine-8-carboxylic acid scaffold as picomolar inhibitors of CK2” (Bioorg Med Chem, 2017):
Where a SMILES comes first, the peptide text is derived from it. The star is where a group is joined. X1 = O=C(O)c1ccc2c(c1)nc(OCCCCCCCCC(=O)*)c1ccncc12

Experiments:
[1] = molecular target: Serine/threonine-protein kinase PAK 5 (Homo sapiens) (UniProt Q9P286); test: Inhibition of human PAK5 assessed as residual activity at 1 uM in presence of [33P]ATP by filter binding assay relative to control
[2] = molecular target: Tyrosine-protein kinase ZAP-70 (Homo sapiens) (UniProt P43403); test: Inhibition of human ZAP70 assessed as residual activity at 1 uM in presence of [33P]ATP by filter binding assay relative to control
[3] = molecular target: Mitogen-activated protein kinase 3 (Homo sapiens) (UniProt P27361); test: Inhibition of human ERK1 assessed as residual activity at 1 uM in presence of [33P]ATP by filter binding assay relative to control
Mitogen-activated protein kinase 3 (Homo sapiens), sequence (P27361 whole entry): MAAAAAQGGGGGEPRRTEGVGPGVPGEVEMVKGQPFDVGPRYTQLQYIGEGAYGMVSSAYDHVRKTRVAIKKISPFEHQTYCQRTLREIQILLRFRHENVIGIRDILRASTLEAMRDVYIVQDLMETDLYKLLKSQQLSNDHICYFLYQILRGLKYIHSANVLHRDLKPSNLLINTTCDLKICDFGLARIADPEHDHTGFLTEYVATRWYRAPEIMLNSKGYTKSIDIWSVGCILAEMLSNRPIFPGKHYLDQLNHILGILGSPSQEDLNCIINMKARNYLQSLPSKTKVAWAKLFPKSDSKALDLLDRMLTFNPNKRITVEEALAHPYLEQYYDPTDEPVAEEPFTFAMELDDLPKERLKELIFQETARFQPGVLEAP

[4] = molecular target: Serine/threonine-protein kinase D1 (Homo sapiens) (UniProt Q15139); test: Inhibition of human PKD1 assessed as residual activity at 1 uM in presence of [33P]ATP by filter binding assay relative to control
[5] = molecular target: Serine/threonine-protein kinase Sgk1 (Homo sapiens) (UniProt O00141); test: Inhibition of human SGK1 assessed as residual activity at 1 uM in presence of [33P]ATP by filter binding assay relative to control
[6] = molecular target: Serine/threonine-protein kinase STK11 (Homo sapiens) (UniProt Q15831); test: Inhibition of human LKB1 assessed as residual activity at 1 uM in presence of [33P]ATP by filter binding assay relative to control
Serine/threonine-protein kinase STK11 (Homo sapiens), sequence (Q15831 whole entry): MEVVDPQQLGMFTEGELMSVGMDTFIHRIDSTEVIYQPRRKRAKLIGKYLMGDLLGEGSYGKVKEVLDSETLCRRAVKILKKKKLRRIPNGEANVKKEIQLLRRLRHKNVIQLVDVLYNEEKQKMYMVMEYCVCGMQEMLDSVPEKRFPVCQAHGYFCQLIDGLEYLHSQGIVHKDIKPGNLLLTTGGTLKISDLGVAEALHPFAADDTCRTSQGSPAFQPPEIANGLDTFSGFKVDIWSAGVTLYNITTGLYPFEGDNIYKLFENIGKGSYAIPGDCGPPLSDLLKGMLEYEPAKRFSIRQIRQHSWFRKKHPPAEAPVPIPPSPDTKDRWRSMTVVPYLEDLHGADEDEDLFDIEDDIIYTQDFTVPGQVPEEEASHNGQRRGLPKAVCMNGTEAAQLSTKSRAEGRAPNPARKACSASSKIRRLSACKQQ

[7] = molecular target: Tyrosine-protein kinase SYK (Homo sapiens) (UniProt P43405); test: Inhibition of human SYK assessed as residual activity at 1 uM in presence of [33P]ATP by filter binding assay relative to control
[8] = molecular target: MAP kinase-activated protein kinase 5 (Homo sapiens) (UniProt Q8IW41); test: Inhibition of human PRAK assessed as residual activity at 1 uM in presence of [33P]ATP by filter binding assay relative to control
[9] = molecular target: Mitogen-activated protein kinase 9 (Homo sapiens) (UniProt P45984); test: Inhibition of human JNK2 assessed as residual activity at 1 uM in presence of [33P]ATP by filter binding assay relative to control
[10] = molecular target: MAP kinase-activated protein kinase 2 (Homo sapiens) (UniProt P49137); test: Inhibition of human MAPKAP-K2 assessed as residual activity at 1 uM in presence of [33P]ATP by filter binding assay relative to control
[11] = molecular target: Mitogen-activated protein kinase 15 (Homo sapiens) (UniProt Q8TD08); test: Inhibition of human ERK8 assessed as residual activity at 1 uM in presence of 33P-ATP by filter-binding assay relative to control
[12] = molecular target: CDK9/cyclin T1 (Homo sapiens) (UniProt O60563+P50750); test: Inhibition of human CDK9-CyclinT1 assessed as residual activity at 1 uM in presence of [33P]ATP by filter binding assay relative to control; type: protein-complex assay
Homo sapiens = organism: Homo sapiens; test: Inhibition of human PKA assessed as residual activity at 1 uM in presence of [33P]ATP by filter binding assay relative to control
[13] = molecular target: Tau-tubulin kinase 1 (Homo sapiens) (UniProt Q5TCY1); test: Inhibition of human TTBK1 assessed as residual activity at 1 uM in presence of [33P]ATP by filter binding assay relative to control
Tau-tubulin kinase 1 (Homo sapiens), sequence (Q5TCY1 whole entry): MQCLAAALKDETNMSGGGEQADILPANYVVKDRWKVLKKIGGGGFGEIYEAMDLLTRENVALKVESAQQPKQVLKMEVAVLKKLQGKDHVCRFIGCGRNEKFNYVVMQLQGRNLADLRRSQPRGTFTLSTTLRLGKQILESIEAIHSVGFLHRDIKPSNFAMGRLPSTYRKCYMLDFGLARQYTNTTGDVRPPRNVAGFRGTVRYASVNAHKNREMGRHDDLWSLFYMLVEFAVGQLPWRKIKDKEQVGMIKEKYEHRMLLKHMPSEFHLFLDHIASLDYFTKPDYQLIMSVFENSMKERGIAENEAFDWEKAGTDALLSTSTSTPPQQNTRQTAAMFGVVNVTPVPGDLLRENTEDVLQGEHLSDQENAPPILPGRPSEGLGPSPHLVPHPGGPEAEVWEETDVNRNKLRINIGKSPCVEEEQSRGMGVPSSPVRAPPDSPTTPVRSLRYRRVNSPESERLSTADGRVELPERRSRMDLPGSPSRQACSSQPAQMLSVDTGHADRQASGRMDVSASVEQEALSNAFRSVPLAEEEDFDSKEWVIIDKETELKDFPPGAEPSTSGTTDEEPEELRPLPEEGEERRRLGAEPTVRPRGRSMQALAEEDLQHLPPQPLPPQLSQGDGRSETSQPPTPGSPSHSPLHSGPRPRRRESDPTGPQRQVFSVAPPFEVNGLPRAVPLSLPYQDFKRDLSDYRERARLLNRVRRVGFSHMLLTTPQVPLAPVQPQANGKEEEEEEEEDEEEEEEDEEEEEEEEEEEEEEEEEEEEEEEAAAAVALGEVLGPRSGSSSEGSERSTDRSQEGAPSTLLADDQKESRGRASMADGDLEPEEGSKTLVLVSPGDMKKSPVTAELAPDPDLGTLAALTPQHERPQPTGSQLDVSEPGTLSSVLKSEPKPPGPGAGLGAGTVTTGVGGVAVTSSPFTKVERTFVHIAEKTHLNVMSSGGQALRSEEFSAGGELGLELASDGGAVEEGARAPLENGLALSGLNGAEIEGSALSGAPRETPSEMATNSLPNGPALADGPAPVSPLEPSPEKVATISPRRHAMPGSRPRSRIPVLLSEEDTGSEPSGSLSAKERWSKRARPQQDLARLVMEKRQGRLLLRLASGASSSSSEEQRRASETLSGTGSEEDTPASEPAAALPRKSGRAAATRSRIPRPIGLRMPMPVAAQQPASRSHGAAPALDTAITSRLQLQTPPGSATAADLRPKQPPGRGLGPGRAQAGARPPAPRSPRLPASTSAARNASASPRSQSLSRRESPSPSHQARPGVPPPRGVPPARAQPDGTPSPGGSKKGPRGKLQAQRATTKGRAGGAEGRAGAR

[14] = molecular target: Eukaryotic translation initiation factor 2-alpha kinase 3 (Homo sapiens) (UniProt Q9NZJ5); test: Inhibition of human EIF2AK3 assessed as residual activity at 1 uM in presence of 33P-ATP by filter-binding assay relative to control
[15] = molecular target: Serine/threonine-protein kinase 24 (Homo sapiens) (UniProt Q9Y6E0); test: Inhibition of human MST3 assessed as residual activity at 1 uM in presence of [33P]ATP by filter binding assay relative to control
[16] = molecular target: Tyrosine-protein kinase CSK (Homo sapiens) (UniProt P41240); test: Inhibition of human CSK assessed as residual activity at 1 uM in presence of [33P]ATP by filter binding assay relative to control
Tyrosine-protein kinase CSK (Homo sapiens), sequence (P41240 2-450 limits assumed): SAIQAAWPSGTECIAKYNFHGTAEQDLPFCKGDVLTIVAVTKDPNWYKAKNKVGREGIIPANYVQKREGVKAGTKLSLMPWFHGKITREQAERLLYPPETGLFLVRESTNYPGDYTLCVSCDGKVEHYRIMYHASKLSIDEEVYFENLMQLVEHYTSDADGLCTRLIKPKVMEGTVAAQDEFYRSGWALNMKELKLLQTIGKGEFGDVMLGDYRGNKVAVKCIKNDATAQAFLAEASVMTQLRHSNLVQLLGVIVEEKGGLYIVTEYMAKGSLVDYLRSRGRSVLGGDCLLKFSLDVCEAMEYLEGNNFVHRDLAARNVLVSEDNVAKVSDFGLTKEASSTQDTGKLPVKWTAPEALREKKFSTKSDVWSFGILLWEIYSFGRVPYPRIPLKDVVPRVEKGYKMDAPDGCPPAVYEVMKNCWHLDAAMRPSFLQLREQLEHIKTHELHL

[17] = molecular target: SRSF protein kinase 1 (Homo sapiens) (UniProt Q96SB4); test: Inhibition of human SRPK1 assessed as residual activity at 1 uM in presence of [33P]ATP by filter binding assay relative to control
[18] = molecular target: Mitogen-activated protein kinase kinase kinase 11 (Homo sapiens) (UniProt Q16584); test: Inhibition of human MLK3 assessed as residual activity at 1 uM in presence of 33P-ATP by filter-binding assay relative to control
Mitogen-activated protein kinase kinase kinase 11 (Homo sapiens), sequence (Q16584 whole entry, looked up): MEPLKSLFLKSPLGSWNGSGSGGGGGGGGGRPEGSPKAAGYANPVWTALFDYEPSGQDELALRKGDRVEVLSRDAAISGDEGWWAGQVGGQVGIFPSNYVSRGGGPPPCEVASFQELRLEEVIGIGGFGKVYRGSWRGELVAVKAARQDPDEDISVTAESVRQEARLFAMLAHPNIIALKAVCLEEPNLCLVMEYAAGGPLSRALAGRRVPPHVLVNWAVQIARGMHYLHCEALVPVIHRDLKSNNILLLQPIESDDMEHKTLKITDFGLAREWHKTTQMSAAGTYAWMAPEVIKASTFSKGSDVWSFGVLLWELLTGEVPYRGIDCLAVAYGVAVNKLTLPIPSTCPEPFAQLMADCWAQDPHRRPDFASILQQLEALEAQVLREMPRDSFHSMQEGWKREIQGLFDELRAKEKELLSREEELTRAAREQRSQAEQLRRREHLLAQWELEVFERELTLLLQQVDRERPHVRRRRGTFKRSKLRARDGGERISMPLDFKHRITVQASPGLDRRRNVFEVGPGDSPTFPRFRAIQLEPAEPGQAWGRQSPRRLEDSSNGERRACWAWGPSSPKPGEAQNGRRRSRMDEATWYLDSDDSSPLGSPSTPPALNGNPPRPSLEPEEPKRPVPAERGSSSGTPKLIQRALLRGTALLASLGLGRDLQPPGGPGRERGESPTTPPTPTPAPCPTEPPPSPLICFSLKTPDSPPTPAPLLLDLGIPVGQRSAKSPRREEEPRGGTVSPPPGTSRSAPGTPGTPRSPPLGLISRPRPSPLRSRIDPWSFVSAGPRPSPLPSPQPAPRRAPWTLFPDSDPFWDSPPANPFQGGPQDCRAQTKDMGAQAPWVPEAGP

[19] = molecular target: Mitogen-activated protein kinase 1 (Homo sapiens) (UniProt P28482); test: Inhibition of human ERK2 assessed as residual activity at 1 uM in presence of [33P]ATP by filter binding assay relative to control
Mitogen-activated protein kinase 1 (Homo sapiens), sequence (P28482 whole entry): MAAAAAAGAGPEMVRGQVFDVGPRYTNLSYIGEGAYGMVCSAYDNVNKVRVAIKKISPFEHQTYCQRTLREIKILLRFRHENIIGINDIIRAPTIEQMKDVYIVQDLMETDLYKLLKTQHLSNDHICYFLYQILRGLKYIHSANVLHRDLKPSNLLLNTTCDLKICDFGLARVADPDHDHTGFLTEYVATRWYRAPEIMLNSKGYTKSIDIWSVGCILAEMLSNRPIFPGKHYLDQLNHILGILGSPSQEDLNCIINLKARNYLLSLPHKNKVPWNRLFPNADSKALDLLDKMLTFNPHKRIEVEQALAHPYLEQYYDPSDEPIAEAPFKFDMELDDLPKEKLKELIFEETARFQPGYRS

[20] = molecular target: Fibroblast growth factor receptor 1 (Homo sapiens) (UniProt P11362); test: Inhibition of human FGFR1 assessed as residual activity at 1 uM in presence of [33P]ATP by filter binding assay relative to control
Fibroblast growth factor receptor 1 (Homo sapiens), sequence (P11362 22-822 limits assumed): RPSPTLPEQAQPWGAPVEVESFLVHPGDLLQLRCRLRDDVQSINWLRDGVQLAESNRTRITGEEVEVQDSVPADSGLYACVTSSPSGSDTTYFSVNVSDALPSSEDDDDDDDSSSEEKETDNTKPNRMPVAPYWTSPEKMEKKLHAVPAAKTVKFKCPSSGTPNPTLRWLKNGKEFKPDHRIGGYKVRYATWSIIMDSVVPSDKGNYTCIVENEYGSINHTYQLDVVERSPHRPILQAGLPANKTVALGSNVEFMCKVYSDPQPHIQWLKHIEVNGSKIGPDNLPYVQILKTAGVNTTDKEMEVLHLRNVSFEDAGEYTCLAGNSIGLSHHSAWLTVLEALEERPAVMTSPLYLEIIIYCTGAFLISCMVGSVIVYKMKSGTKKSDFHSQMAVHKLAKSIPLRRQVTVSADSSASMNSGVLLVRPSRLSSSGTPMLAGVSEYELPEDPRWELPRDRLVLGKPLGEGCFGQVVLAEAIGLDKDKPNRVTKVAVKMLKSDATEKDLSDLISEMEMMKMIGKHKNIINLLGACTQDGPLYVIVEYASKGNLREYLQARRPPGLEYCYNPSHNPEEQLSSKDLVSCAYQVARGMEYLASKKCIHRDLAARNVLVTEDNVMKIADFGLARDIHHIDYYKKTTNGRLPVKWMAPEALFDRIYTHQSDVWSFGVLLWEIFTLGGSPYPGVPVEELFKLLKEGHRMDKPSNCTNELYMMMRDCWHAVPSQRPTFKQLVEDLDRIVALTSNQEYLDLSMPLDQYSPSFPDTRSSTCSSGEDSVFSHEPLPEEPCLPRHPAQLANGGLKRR

[21] = molecular target: Mitogen-activated protein kinase 14 (Homo sapiens) (UniProt Q16539); test: Inhibition of human p38a MAPK assessed as residual activity at 1 uM in presence of [33P]ATP by filter binding assay relative to control
[22] = molecular target: Receptor tyrosine-protein kinase erbB-4 (Homo sapiens) (UniProt Q15303); test: Inhibition of human HER4 assessed as residual activity at 1 uM in presence of [33P]ATP by filter binding assay relative to control
[23] = molecular target: Casein kinase I isoform delta (Homo sapiens) (UniProt P48730); test: Inhibition of human CK1delta assessed as residual activity at 1 uM in presence of [33P]ATP by filter binding assay relative to control
Casein kinase I isoform delta (Homo sapiens), sequence (P48730 whole entry, looked up, canonical isoform): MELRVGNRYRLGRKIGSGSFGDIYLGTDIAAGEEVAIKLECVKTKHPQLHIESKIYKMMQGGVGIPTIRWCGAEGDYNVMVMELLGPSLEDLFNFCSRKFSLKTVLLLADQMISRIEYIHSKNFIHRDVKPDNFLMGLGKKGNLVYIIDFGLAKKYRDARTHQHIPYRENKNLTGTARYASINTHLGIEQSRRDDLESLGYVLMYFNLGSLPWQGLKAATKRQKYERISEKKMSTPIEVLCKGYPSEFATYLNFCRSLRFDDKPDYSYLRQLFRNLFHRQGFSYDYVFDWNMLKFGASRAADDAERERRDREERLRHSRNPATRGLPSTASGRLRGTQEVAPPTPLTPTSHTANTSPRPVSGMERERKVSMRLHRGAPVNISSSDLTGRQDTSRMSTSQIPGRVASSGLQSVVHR

- Activity [1]: 97%
- Activity [2]: 103%
- Activity [3]: 106%
- Activity [4]: 79%
- Activity [5]: 84%
- Activity [6]: 83%
- Activity [7]: 84%
- Activity [8]: 92%
- Activity [9]: 79%
- Activity [10]: 100%
- Activity [12]: 108%
- Activity (Homo sapiens): 94%
- Activity [13]: 97%
- Activity [14]: 47%
- Activity [15]: 93%
- Activity [16]: 77%
- Activity [17]: 86%
- Activity [18]: 22%
- Activity [19]: 90%
- Activity [20]: 92%
- Activity [21]: 89%
- Activity [22]: 90%
- Activity [23]: 82%
SMILES: NCCCC[C@H](NC(=O)[C@H](CC(=O)O)NC(=O)[C@H](CC(=O)O)NC(=O)[C@H](CC(=O)O)NC(=O)[C@H](CC(=O)O)NC(=O)[C@H](CC(=O)O)NC(=O)[C@H](CC(=O)O)NC(=O)CCCCCCCCOc1nc2cc(C(=O)O)ccc2c2cnccc12)C(=O)O (X1-DDDDDDK-OH)
- Activity [11]: 10%
